This is an account of results in US8466185B2, “Methods and assays for detecting and treating hypoglycemia” (priority 2008, dated 2013).

For one data set, the system named is monkey islets. The data set is described as follows: in vitro perifusion, insulin release from monkey islets. Conditions: 100 μM; not shown.
The conditions of data set [1]: Beyreuther et al., 2007; cited from earlier work.
The subject of data set [2] is monkey islets and dispersed single islet cells. The data set is described as follows: [Ca^2+]i imaging (Fura-2) of monkey islets and islet cells. Format: cell-based, monkey (Macacca fascicularis). The settings on record: glutamate 100 μM. The method, then:
Imaging of [Ca^2+]i was performed as described elsewhere (Cabrera et al., 2006). […] Glucose was added to give a final concentration of 3 mM. Islets or dispersed islet cells were incubated in Fura-2 AM (2 μM; 1 hour) and placed in a closed small-volume imaging chamber (Warner Instruments, Hamden, Conn.). Stimuli were applied with the bathing solution. Islets loaded with Fura-2 were excited alternatively at 340 and 380 nm with a monochromator light source (Cairn. Research Optoscan Monochromator, Cairn Research Ltd, Faversham, UK). Images were acquired with a Hamamatsu camera (Hamamatsu Corp, Japan) attached to a Zeiss Axiovert 200 microscope (Carl Zeiss, Jena, Germany). Changes in the 340/380 fluorescence emission ratio over time were analyzed in individual islets and dispersed cells using Kinetic Imaging AQM Advance software (Kinetic Imaging, N.C.). Peak changes in the fluorescence ratio constituted the response amplitude.

The test system of data set [3] is human islets. It counts as cell-based. Conditions: glutamate 100 μM. Here is the method:
Perifusion of the islets was stopped after addition of the stimulus to allow the islet secretory products to accumulate and then resumed after 10 minutes.

Data set [4] concerns human islets. The data set is described as follows: in vitro perifusion, insulin release from human islets. The settings on record: 100 μM.
Procedure: (§1) A high-capacity, automated perifusion system was developed to dynamically measure hormone secretion from pancreatic islets. A low pulsatility peristaltic pump pushed HEPES-buffered solution (mM: 125 NaCl, 5.9 KCl, 2.56 CaCl2, 1 MgCl2, 25 HEPES, and 0.1% BSA; pH 7.4; and a perifusion rate of 100 μL/min) through a column containing 100 pancreatic islets immobilized in Bio-Gel P-4 Gel (BioRad, Hercules, Calif.). Except otherwise stated, glucose concentration was adjusted to 3 mM for all experiments. Stimuli were applied with the perifusion buffer. The perifusate was collected in an automatic fraction collector designed for a 96 well plate format. The columns containing the islets and the perifusion solutions were kept at 37° C., and the perifusate in the collecting plate was kept at <4° C. Perifusates were collected every minute. Hormone release in the perifusate was determined with the human or mouse Endocrine LINCOplex Kit following manufacturer's instructions (Linco research, St. Charles, Mo.).
Data set [5] concerns human islets and dispersed single islet cells. The data set is described as follows: [Ca^2+]i imaging (Fura-2) of human islets and dispersed islet cells. Format: cell-based. The method, then:
Glucose was added to give a final concentration of 3 mM. Islets or dispersed islet cells were incubated in Fura-2 AM (2 μM; 1 hour) and placed in a closed small-volume imaging chamber (Warner Instruments, Hamden, Conn.). Stimuli were applied with the bathing solution. Islets loaded with Fura-2 were excited alternatively at 340 and 380 nm with a monochromator light source (Cairn. Research Optoscan Monochromator, Cairn Research Ltd, Faversham, UK). Images were acquired with a Hamamatsu camera (Hamamatsu Corp, Japan) attached to a Zeiss Axiovert 200 microscope (Carl Zeiss, Jena, Germany). Changes in the 340/380 fluorescence emission ratio over time were analyzed in individual islets and dispersed cells using Kinetic Imaging AQM Advance software (Kinetic Imaging, N.C.). Peak changes in the fluorescence ratio constituted the response amplitude.

Data set [6] relates to human islets. The data set is described as follows: in vitro perifusion, glucagon secretion from human islets. Format: cell-based.
Procedure: as §1
The subject of another data set is mouse islets. The data set is described as follows: perifusion, glucagon secretion from mouse islets. Format: cell-based, mouse (C57Bl/6).
Another data set concerns C57BL/6 mice. The data set is described as follows: in vivo responses to iGluR agonists injected i.p. The arrangement: species or system mouse. The settings on record: glutamate 30 mg/kg, AMPA 15 mg/kg, i.p. The method, then:
We examined in vivo responses to iGluR agonists by injecting C57BL/6 mice i.p. with either PBS (n=4), monosodium glutamate (30 mg/kg; n=7), or AMPA (15 mg/kg; n=8). To determine whether blocking iGluRs exacerbates insulin-induced hypoglycemia, we injected the AMPA/kainate iGluR antagonist NBQX (Tocris, Ellisville, Mo.) i.p. at 20 mg/kg 30 minutes before mice were treated with insulin to induce hypoglycemia.

Entries after “also recorded” stand apart in the source; their conditions may differ.

Procedure for mouse islets: as §1

`N[C@@H](CCC(=O)O)C(=O)O` [glutamate]: the insulin release result was “Neither kainate (100 μM), glutamate (100 μM), nor AMPA (100 μM) stimulated increases in insulin release” with monkey islets and “Neither kainate (100 μM), glutamate (100 μM), nor AMPA (100 μM) stimulated increases in insulin release” with human islets [4]. In [1], the blood-brain barrier penetration entry is reported as “does not penetrate the blood-brain barrier”. Besides, the “[Ca^2+]i response” value was “increases in cytoplasmic free Ca^2+ concentration” in data set [2] and “elicited concentration-dependent [Ca^2+]i; responses; also recorded: increases in cytoplasmic free Ca^2+ concentration” in [5] (100 μM). In addition, the “glucagon secretion from human islets measured by [Ca^2+]i responses in biosensor cells” value in the data set on human islets [3] (islets on biosensor cells) was “large [Ca^2+]i responses; also recorded: elicited glucagon secretion from human islets”. Further, the “[Ca^2+]i response of biosensor cells in the absence of islets” value in the data set with human islets [3] (no islets) is “did not respond; also recorded: No responses were seen”. Further, in data set [5], the “cells responding to high glucose (11 mM) that did not respond to glutamate” value is 64 out of 64. The “glutamate-responsive cells that were glucagon-immunoreactive” value in [5] (n=4 human preparations) is given as 34 out of 37. Besides, the “glucagon release / glucagon secretion” value in the data set on human islets [6] (agonist 100 μM, 3 mM glucose) was “induced glucagon responses”. In addition, in the data set on human islets [6] (glutamate 1 μM-1 mM), the glucagon release entry was “stimulated large, concentration-dependent increases in glucagon release”. For the same compound, in the data set on mouse islets (100 μM), the “glucagon release / secretion” value is given as “stimulated glucagon release”. The “glucagon responses to glutamate in islets from mGluR4 knockout versus control mice” value in the data set with mouse islets (glutamate 100 μM) is “undistinguishable in wild type and mGluR4KO mice”. In addition, the plasma insulin concentrations entry in the data set with C57BL/6 mice is given as “not affected; also recorded: did not change”. Moreover, the plasma glucagon concentrations result in the data set with C57BL/6 mice (30 minutes after treatment) is “increased plasma glucagon concentrations”. In the data set on C57BL/6 mice (thirty minutes after injection), the plasma glucose concentrations result is listed as “increased glucose levels”.
